Laboratory results: ChEMBL document CHEMBL4342403, “New evolutions in the BACE1 inhibitor field from 2014 to 2018” (Bioorg Med Chem Lett, 2019)
Blank lines part the entries; values can stand above or below the compound they belong to.

How the values were obtained:
Beta-secretase 1 [1] = target: T1, Beta-secretase 1 (Homo sapiens, UniProt P56817); test: Inhibition of human BACE1 catalytic domain preincubated for 30 mins followed by QSY7-EISEVNLDAEFC-Europium-amide substrate addition and measured after […] by HTRF assay
Beta-secretase 2 [2] = target: T2, Beta-secretase 2 (Homo sapiens, UniProt Q9Y5Z0); test: Inhibition of human BACE2 preincubated for 30 mins followed by QSY7- EISEVNLDAEFC-Eu-amide substrate addition and measured after […] by HTRF assay
T2 sequence (Q9Y5Z0 whole entry): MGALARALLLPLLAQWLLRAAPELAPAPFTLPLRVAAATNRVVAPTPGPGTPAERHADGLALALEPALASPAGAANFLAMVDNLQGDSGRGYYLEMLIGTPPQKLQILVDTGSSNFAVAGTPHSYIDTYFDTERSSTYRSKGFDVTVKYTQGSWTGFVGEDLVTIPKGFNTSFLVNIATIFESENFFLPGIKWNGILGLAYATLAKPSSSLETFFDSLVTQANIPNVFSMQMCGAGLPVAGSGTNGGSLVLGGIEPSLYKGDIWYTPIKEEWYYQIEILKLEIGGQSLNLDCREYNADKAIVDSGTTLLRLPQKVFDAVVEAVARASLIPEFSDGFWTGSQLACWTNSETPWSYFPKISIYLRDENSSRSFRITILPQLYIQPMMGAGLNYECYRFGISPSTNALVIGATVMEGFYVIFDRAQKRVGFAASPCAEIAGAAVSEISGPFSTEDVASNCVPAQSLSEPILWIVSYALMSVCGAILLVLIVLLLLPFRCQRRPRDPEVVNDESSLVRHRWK

Beta-secretase 1 [3] = target: T1, Beta-secretase 1; test: Inhibition of BACE1 (unknown origin) assessed as reduction in amyloidbeta 40 level after 24 hrs by cell-based sandwich ELISA
Beta-secretase 1 [4] = target: T1, Beta-secretase 1; test: Inhibition of C-terminal His6-tagged human BACE1 expressed in mammalian expression system preincubated for 1 hr followed by substrate addition and measured after 1 hr by FRET assay
Beta-secretase 2 [5] = target: T2, Beta-secretase 2; test: Inhibition of C-terminal His6-tagged human BACE2 expressed in mammalian expression system preincubated for 1 hr followed by substrate addition and measured after 1 hr by FRET assay
Beta-secretase 1 [6] = target: T1, Beta-secretase 1; test: Inhibition of BACE1 in HEK293 cells harboring APP assessed as reduction in amyloidbeta 40 level incubated for 18 to 20 hrs by AlphaLISA Assay; assay type: cell-based
Beta-secretase 1 [7] = target: T1, Beta-secretase 1; test: Inhibition of BACE1 in human SH-SY5Y cells expressing betaAPP assessed as reduction in amyloidbeta (1 to 40 residues) level incubated for 24 hrs by HTRF assay; assay type: cell-based
Beta-secretase 1 [8] = target: T1, Beta-secretase 1; test: Inhibition of human BACE1 using Biotin-XSEVNLDAEFRHDSGC as substrate incubated for 2 hrs by fluorescence method
Beta-secretase 2 [9] = target: T2, Beta-secretase 2; test: Inhibition of BACE2 (unknown origin)
P-glycoprotein (ABCB1) = P-glycoprotein (ABCB1) (Homo sapiens, UniProt P08183); test: Substrate activity at p-glycoprotein (unknown origin) assessed as efflux ratio; conditions: not told
Beta-secretase 1 [10] = target: T1, Beta-secretase 1; test: Inhibition of BACE1 (unknown origin)
Beta-secretase 1 [11] = target: T1, Beta-secretase 1; test: Inhibition of BACE1 (unknown origin) by cell-based assay
Beta-secretase 1 [12] = target: T1, Beta-secretase 1; test: Inhibition of human BACE1 (1 to 460 residues) expressed in HEK293 cells after 16 to 24 hrs by FRET assay; assay type: cell-based
Cathepsin D = Cathepsin D (Homo sapiens, UniProt P07339); test: Inhibition of recombinant Cathepsin D (unknown origin) expressed in CHO cells preincubated for 1 hr followed by substrate addition and measured after 1 hr by FRET assay; assay type: cell-based
Beta-secretase 1 [13] = target: T1, Beta-secretase 1; test: Inhibition of human BACE1 expressed in Escherichia coli preincubated for 1 hr followed by Mca-Ser-Glu-Val-Asn-Leu-Asp-Ala-Glu-Phe-Lys(Dnp)-OH substrate addition by spectroflurimetric assay
Rattus norvegicus [14] = test: In vivo inhibition of BACE1 in Sprague Dawley rat assessed as reduction in amyloidbeta 40 level in brain at 30 mg/kg, po measured at 3 hrs post dose by ELISA relative to control; assay type: functional
Rattus norvegicus [15] = test: In vivo inhibition of BACE1 in Sprague Dawley rat assessed as reduction in amyloidbeta 40 level in brain at 10 mg/kg, po measured at 3 hrs post dose by ELISA relative to control; assay type: functional
[16] = Dissociation constant, pKa of the compound; assay type: physicochemical
Beta-secretase 1 [17] = target: Beta-secretase 1 (Rattus norvegicus, UniProt P56819); test: Inhibition of BACE1 in Wistar rat neuronal cell suspension after 1 to 3 days by ELISA
Beta-secretase 1 (Rattus norvegicus, UniProt P56819), sequence (P56819 whole entry): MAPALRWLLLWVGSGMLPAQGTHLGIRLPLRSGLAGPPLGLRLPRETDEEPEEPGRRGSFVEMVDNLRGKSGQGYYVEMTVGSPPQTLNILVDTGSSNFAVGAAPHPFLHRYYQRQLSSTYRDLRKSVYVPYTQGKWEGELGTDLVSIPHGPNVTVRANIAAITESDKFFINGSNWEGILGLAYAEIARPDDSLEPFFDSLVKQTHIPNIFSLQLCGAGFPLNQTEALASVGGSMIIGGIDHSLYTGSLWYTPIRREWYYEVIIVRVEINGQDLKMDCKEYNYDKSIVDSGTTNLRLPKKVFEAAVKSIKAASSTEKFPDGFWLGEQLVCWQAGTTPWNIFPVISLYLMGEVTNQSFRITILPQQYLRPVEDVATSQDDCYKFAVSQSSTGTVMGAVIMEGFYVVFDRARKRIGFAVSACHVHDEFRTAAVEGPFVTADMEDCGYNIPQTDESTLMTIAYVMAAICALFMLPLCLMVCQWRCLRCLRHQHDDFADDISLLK

T1 sequence (P56817 whole entry, the tested form may be a part): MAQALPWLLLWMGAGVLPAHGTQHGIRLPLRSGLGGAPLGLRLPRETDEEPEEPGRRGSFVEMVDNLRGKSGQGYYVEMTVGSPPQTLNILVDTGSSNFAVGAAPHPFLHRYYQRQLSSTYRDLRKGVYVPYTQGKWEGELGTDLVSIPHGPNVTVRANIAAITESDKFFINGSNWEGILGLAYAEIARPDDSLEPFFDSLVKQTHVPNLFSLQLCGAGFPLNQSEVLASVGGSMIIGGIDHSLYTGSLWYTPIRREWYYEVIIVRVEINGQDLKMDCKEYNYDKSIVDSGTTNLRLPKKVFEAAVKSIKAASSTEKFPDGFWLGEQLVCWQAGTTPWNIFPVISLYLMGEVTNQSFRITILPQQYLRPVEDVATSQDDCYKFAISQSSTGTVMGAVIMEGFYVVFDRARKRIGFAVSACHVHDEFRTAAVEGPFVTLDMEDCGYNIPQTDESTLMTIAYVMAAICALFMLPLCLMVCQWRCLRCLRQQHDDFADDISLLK
P-glycoprotein (ABCB1), sequence (P08183 whole entry): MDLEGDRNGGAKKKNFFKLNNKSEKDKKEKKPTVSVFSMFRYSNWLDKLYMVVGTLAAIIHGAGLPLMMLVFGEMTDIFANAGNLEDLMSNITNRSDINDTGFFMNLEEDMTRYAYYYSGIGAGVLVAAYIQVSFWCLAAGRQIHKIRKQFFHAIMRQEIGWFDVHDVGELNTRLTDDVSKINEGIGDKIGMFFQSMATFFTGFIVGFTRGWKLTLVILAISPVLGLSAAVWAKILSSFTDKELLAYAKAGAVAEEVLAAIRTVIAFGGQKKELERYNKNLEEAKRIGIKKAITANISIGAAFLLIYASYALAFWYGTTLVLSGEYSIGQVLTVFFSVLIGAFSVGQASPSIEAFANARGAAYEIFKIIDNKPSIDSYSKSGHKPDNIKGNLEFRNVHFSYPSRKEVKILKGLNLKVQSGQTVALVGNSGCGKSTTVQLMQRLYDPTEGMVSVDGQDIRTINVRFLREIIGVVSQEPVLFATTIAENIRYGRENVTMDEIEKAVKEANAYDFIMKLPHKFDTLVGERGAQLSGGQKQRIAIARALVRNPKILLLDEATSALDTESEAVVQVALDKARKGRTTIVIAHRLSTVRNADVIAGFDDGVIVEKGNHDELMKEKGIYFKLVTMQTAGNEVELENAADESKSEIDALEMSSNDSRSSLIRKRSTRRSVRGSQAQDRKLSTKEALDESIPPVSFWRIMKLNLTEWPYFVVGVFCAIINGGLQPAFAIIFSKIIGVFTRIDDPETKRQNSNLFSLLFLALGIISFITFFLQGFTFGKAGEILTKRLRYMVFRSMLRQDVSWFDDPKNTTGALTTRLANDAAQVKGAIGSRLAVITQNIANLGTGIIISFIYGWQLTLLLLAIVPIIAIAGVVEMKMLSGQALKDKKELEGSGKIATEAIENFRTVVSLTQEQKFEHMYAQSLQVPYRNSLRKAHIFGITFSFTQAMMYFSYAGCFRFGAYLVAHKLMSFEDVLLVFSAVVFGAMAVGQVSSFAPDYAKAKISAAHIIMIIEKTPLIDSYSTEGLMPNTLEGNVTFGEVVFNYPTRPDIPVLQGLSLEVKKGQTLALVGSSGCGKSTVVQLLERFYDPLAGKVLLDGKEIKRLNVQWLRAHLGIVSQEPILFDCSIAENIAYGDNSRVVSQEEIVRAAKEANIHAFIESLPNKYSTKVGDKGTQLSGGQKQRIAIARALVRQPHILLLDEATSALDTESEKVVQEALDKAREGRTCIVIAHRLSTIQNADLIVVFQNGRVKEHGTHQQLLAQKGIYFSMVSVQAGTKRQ
Cathepsin D, sequence (P07339 65-162 limits assumed): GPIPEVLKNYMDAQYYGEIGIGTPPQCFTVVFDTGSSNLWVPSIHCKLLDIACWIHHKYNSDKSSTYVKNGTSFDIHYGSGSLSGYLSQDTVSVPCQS
Cathepsin D, sequence (P07339 169-412 limits assumed): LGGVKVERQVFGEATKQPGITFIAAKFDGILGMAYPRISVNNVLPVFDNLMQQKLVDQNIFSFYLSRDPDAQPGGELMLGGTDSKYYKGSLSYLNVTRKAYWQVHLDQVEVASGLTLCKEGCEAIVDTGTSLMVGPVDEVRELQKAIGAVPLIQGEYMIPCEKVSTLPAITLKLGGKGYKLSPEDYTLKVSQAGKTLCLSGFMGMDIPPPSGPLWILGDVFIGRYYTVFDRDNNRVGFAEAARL

SMILES: CN=S1(=O)C[C@@](C)(c2cc(-c3cc(-c4ncc(OC)cn4)no3)ccc2F)N=C(N)N1C (single isomer, unassigned)
- IC50 (Beta-secretase 1 [6]): 22 nM

SMILES: C[C@@]1(c2nc(NC(=O)c3ccc(C#N)cn3)ccc2F)CS2(=O)=NCCCCN2C(N)=N1 (some centres not stated)
- IC50 (Beta-secretase 1 [6]): 49 nM

SMILES: C[C@@]1(c2nc(NC(=O)c3ccc(C#N)cn3)ccc2F)C[C@@H](C(F)(F)F)OC(N)=N1
- IC50 (Beta-secretase 1 [6]): 3.4 nM

SMILES: COc1nc(N2C[C@H]3CSC(N)=N[C@@]3(c3ccns3)C2)nc(C)c1F
- IC50 (Beta-secretase 1 [12]): 172 nM

SMILES: C[C@@]1(c2cc(-c3cc(-c4cnc(C#N)cn4)no3)ccc2F)C[C@@H](C(F)(F)F)OC(N)=N1
- IC50 (Beta-secretase 1 [6]): 30 nM

SMILES: Cc1cc(Cl)cnc1C(=O)Nc1ccc2c(c1)[C@@]1(C)N=C(N)C(C)(C)S(=O)(=O)[C@@H]1CCO2
- IC50 (Beta-secretase 1 [3]): 6 nM
- IC50 (Cathepsin D): > 100000 nM

SMILES: COc1cnc(C(=O)Nc2ccnc([C@]34CN(c5ncc(F)cn5)C[C@H]3CSC(N)=N4)c2)cn1
- IC50 (Beta-secretase 1 [12]): 0.9 nM

SMILES: CN1C[C@@H](c2cc(NC(=O)c3ccc(C#N)cn3)ccc2F)N=C(N)C(C)(C)S1(=O)=O
- Ki (Beta-secretase 1 [1]): 22 nM
- Ki (Beta-secretase 2 [2]): 32 nM

SMILES: COc1ccc(C(=O)Nc2ccc(F)c([C@]34COC[C@@]3(F)C[C@](C)(F)C(N)=N4)c2)nc1
- inhibition in vivo at 30 mg/kg (Rattus norvegicus [14]): 64%
- inhibition in vivo at 10 mg/kg (Rattus norvegicus [15]): 48%

SMILES: N#Cc1ccc(C(=O)Nc2ccc(F)c([C@]34COC[C@H]3n3cccc3C(N)=N4)c2)nc1
- IC50 (Beta-secretase 1 [11]): 15.5 nM
- IC50 (Beta-secretase 2 [9]): 120 nM
- IC50 (Beta-secretase 1 [10]): 26.3 nM

SMILES: CN1C(=N)N[C@]2(C)c3cc(NC(=O)c4ccc(C#N)cn4)ccc3OCC[C@@H]2S1(=O)=O (relative stereo)
- Ki (Beta-secretase 1 [1]): 47 nM
- Ki (Beta-secretase 2 [2]): 303 nM

More lines, now with the values ahead:

- Ki (Beta-secretase 1 [1]): 5 nM
- Ki (Beta-secretase 2 [2]): 1 nM
SMILES: CN=S1(=O)C[C@@](C)(c2cc(NC(=O)c3ccc(Cl)cn3)ccc2F)N=C(N)N1C (single isomer, unassigned)

- IC50 (Beta-secretase 1 [3]): 11.2 nM
- IC50 (Beta-secretase 1 [4]): 15.2 nM
- IC50 (Beta-secretase 2 [5]): 3.02 nM
SMILES: NC1=N[C@](CF)(c2cc(NC(=O)c3cnc(Cl)cn3)cc(F)c2F)[C@H]2[C@@H](S1)C2(F)F

- IC50 (Beta-secretase 1 [3]): 3.7 nM
- IC50 (Beta-secretase 1 [4]): 1.6 nM
- IC50 (Beta-secretase 2 [5]): 13.2 nM
SMILES: NC1=N[C@](CF)(c2cc(NC(=O)c3cnc(Cl)cn3)ccc2F)[C@@H]2C[C@]2(C(F)F)S1

- IC50 (Beta-secretase 1 [7]): 2 nM
SMILES: CC1(c2cc(NC(=O)c3ccc(C#N)cn3)ccc2F)Cc2ncc(F)cc2C(N)=N1 (configuration not stated)

- IC50 (Beta-secretase 1 [7]): 1.2 nM
- IC50 (Beta-secretase 1 [8]): 4.77 nM
SMILES: C[C@H]1SC(N)=N[C@](C)(c2cc(NC(=O)c3ccc(OC(F)F)cn3)ccc2F)[C@H]1F

- IC50 (Beta-secretase 2 [9]): 1 nM
- efflux ratio (P-glycoprotein (ABCB1)): 0.7
- IC50 (Beta-secretase 1 [10]): 5.67 nM
SMILES: C[C@@]1(c2cc(NC(=O)c3ccc(OCF)cn3)ccc2F)C[C@@H](C(F)(F)F)SC(N)=N1

- IC50 (Beta-secretase 1 [11]): 13.2 nM
- IC50 (Beta-secretase 1 [10]): 3.9 nM
SMILES: Cn1cc2n(c1=O)C[C@@](C)(c1cc(NC(=O)c3ccc(C#N)cn3)ccc1F)N=C2N

- IC50 (Beta-secretase 1 [7]): 5.4 nM
- IC50 (Beta-secretase 1 [8]): 11.9 nM
SMILES: C[C@H]1SC(N)=N[C@](C)(c2cc(NC(=O)c3cnc(F)cn3)ccc2F)C12CC(F)(F)C2

- IC50 (Beta-secretase 1 [13]): 7080 nM
SMILES: NC1=N[C@@]2(COc3ccc(NC(=O)c4cnc(OCC(F)(F)F)cn4)cc32)[C@H](C(F)(F)F)C1

- IC50 (Beta-secretase 1 [7]): 1 nM
SMILES: COC[C@H]1SC(N)=N[C@](C)(c2cc(NC(=O)c3ccc(C#N)cn3)ccc2F)[C@H]1F

- IC50 (Beta-secretase 1 [13]): 1050 nM
- pKa [16]: 11.1
SMILES: C[C@@]1(c2cc(NC(=O)c3ccc(C#N)cn3)ccc2F)CCC(N)=N1

- IC50 (Beta-secretase 1 [17]): 8 nM
SMILES: COc1cnc(C(=O)Nc2ccc(F)c([C@]34CO[C@H](C(F)(F)F)[C@H]3CSC(N)=N4)c2)cn1

- IC50 (Beta-secretase 1 [13]): 182 nM
- pKa [16]: 9
SMILES: C[C@]1(c2cc(NC(=O)c3ccc(C#N)cn3)ccc2F)N=C(N)C[C@H]1C(F)(F)F
